The results in this text go back to patent US20250327028A1, “ENGINEERED PLATELETS AS TARGETED PROTEIN DEGRADERS” (Wisconsin Alumni Research Foundation, priority 2024, published 2025).

The test system of experiment [1] is HSP90α (Hsp90aa1) and HSP90β (Hsp90ab1). The experiment is described as follows: Streptavidin-mediated immunoprecipitation and mass spectrum analysis of biotin-labeled protein in 4T1 lysate. The class given is cell-based, murine. As to conditions: 4T1 cell lysate. Here is the method:
Streptavidin-mediated immunoprecipitation and mass spectrum analysis: 2×10^6 4T1 cells were seeded in T75 culture flasks and cultured for 24 h. Then, the medium in the corresponding flasks was replaced with 15 mL of blank medium with DMSO or HAC-B (10 μM). Following incubation for another 2 h, the cells were washed with cold PBS twice and digested with 2 mL trypsin. The cell pellets were collected through centrifugation at 1,200 rpm for 3 min and washed with cold PBS. The final pellets were directly lysed on ice with IP lysis buffer (50 mM Tris-HCl, pH 7.4; 150 mM NaCl; 2 mM EDTA; 1% NP-40) containing PMSF (1 mM) and the phosphatase inhibitor cocktail for 30 min. The lysates were collected and centrifuged at 10,000 g for 10 minutes at 4° C. The total proteins in the supernatants were quantified through the BCA assay, and 20 μL of lysate supernatants were saved as the input samples. To totally pull down the biotin-labeled contents, 150 μL of Pierce™ streptavidin magnetic beads was added to each supernatant, and the resulting mixtures were incubated at 4° C. with a gentle rotation overnight. Subsequently, the supernatant was discarded by placing the tubes on a magnetic rack, and the obtained magnetic beads were washed with IP lysis buffer three times. […] Finally, the bands were treated with ECL western blot substrate and detected by the iBright™ imaging system. […]

A further experiment relates to HSP90. The experiment is described as follows: Quantification of biotin-labeled contents in platelets (biotin quantitation kit). The class given is cell-based, BALB/c mice. The conditions noted are these: 2 h. Here is the method:
The fresh platelets were incubated with HAC-B at 2.5, 5, 10, 20, and 40 μM for 2 h, and the corresponding lysates were collected using the IP lysis buffer containing PMSF and phosphatase inhibitor cocktail. The biotin-labeled contents in each lysate supernatant were quantified by the QuantTag™ biotin quantitation kit, and the relevant engineering efficiency was calculated based on dividing the amount of biotin-labeled contents by the HAC-B amount added.

The target in the next experiment is T1, BRD4 (Mus musculus, UniProt Q9ESU6).
T1 construct: endogenous in cells; host or cells: 4T1
Put plainly: Immunoblot analysis of BRD4 degradation in 4T1 cells after free HAC treatment. Format: cell-based, murine. From the text:
Immunoblot analysis: Immunoblot analysis was used to evaluate the expression of BRD4, HSP90, HSP90a, and PD-L1 in 4T1, WT MDA-MB-231, HSP90α-KO MDA-MB-231 or PEA-10 cells after various treatments and also served as the detection method for IP or co-IP experiments. The procedures for preparing IP or co-IP samples were indicated in the relevant experimental parts.
Sample preparation for various cancer cells after free HAC treatment: Various cells, including 4T1, WT MDA-MB-231, HSP90α-KO MDA-MB-231, or PEA-10 cells, were seeded in 6-well culture plates with a density of 5×10^4 cells in each well and cultured for 24 h. Then, if HAI pretreatment was performed, the cells were incubated in the HAI-containing blank medium at different concentrations for 2 h and washed with PBS twice before the following treatments. The medium in the corresponding wells was replaced with 1 mL of blank medium containing the DMSO vehicle, HACs, or the combinations of various free ligands at the predetermined concentrations. After incubation for the indicated time points, cells were washed with PBS and lysed on ice with the relevant lysis buffer containing PMSF (1 mM) and the phosphatase inhibitor cocktail for 30 min. As for the conditioned medium (CM), the culturing complete medium of the corresponding cancer cells in each well was collected after 24-h incubation and subjected to centrifugation at 2000 rpm for 5 min to obtain the supernatant. The filtrate of the supernatants was collected following filtration over a 0.45 μm filter, serving as the CM. Regarding the cell samples for BRD4 detection, the lysis buffer containing HEPES-KOH (pH=7.5, 10 mM), NaCl (500 mM), EDTA (5 mM), NP-40 (1%), and SDS (0.1%) was used with the indicated PMSF and phosphatase inhibitor cocktail. As for PD-L1 detection, RIPA buffer (Thermo Fisher Scientific/J63306.AP) was used with the indicated PMSF and phosphatase inhibitor cocktail.
General procedures for immunoblot analysis: After a 30-min lysis, the lysates were centrifuged at 10,000 g for 10 minutes at 4° C., and the corresponding supernatants were collected, followed by quantification of the total proteins in the supernatant through the BCA assay. Afterward, the proteins in the supernatant were mixed with the loading buffer and heated at 95° C. for 15 min. Equal amounts of proteins from different samples ([…]) were loaded into the Bis-Tris gel formulated with Bis-Tis buffer, 30% acrylamide/Bis, 10% ammonium persulfate (APS) solution, and TEMED. The separated proteins were transferred to polyvinylidene fluoride (PVDF) membranes before the membranes were blocked with 5% nonfat milk in PBS-T. Next, the PVDF membranes were incubated with primary antibodies overnight at 4° C., if necessary, followed by the incubation with the goat-anti-rabbit IgG H & L (HRP) secondary antibodies at room temperature for 2 h. Finally, the bands were treated with electrochemiluminescence (ECL) western blot substrate, detected by the iBright™ imaging system and quantified with ImageJ software. 8% Bis-Tris gels were used for BRD4 detection, and 10% gels were adopted to analyze PD-L1.

With `N#CCN(C(=O)CCCC[C@@H]1SC[C@@H]2NC(=O)N[C@@H]21)S(=O)(=O)c1ccc(C(=O)NCCCn2c(Sc3cc4c(cc3I)OCO4)nc3c(N)ncnc32)cc1` [HAC-B, N-(3-(6-amino-8-((6-iodobenzo[d][1,3]dioxol-5-yl)thio)-9H-purin-9-yl)propyl)-4-(N-(cyanomethyl)-N-(5-((3aS,4S,6aR)-2-oxohexahydro-1H-thieno[3,4-d]imidazol-4-yl)pentanoyl)sulfamoyl)benzamide], the “biotin-labeled protein immunoprecipitated by streptavidin beads (gel, immunoblot)” value in experiment [1] (10 μM, 2 h, vs sample without treatment) was “an additional HSP90 band appeared in the gel”. Besides, the “protein identification on IP samples through mass spectrum” value in experiment [1] (streptavidin IP) is “could bind to both isoforms of HSP90, HSP90α (Hsp90aa1) and HSP90β (Hsp90ab1), with a favorable selectivity”. The “HAC-B concentration at which biotin-labeled content inside platelets reaches a peak” value with HSP90 turned out to be 20 µM.

`Cc1sc2c(c1C)C(c1ccc(Cl)cc1)=N[C@@H](CC(=O)NCc1cn(CCCC(=O)N(CC#N)S(=O)(=O)c3ccc(C(=O)NCCCn4c(Sc5cc6c(cc5I)OCO6)nc5c(N)ncnc54)cc3)nn1)c1nnc(C)n1-2` [iHAC, (S)—N-(3-(6-amino-8-((6-iodobenzo[d][1,3]dioxol-5-yl)thio)-9H-purin-9-yl)propyl)-4-(N-(4-(4-((2-(4-(4-chlorophenyl)-2,3,9-trimethyl-6H-thieno[3,2-f][1,2,4]triazolo[4,3-a][1,4]diazepin-6-yl)acetamido)methyl)-1H-1,2,3-triazol-1-yl)butanoyl)-N-(cyanomethyl)sulfamoyl)benzamide]: on BRD4 (4T1 and WT MDA-MB-231 cells (FIGS. 2K, 2L), lower or higher effective concentrations), the “BRD4 degradation in presence of proteasome inhibitor epoxomicin (Epox)” value is on record as “rescue effect induced by proteasome inhibitor epoxomicin (Epox)”. Moreover, on BRD4 (4T1 cells, 24 h), the “higher effective concentration that efficiently reduces BRD4 expression” value came out at 20 µM and the “lower effective concentration that efficiently reduces BRD4 expression” value stood at 0.16 µM. Further, at BRD4 (4T1 cells, at the two effective concentrations), the “time dependence of BRD4 downregulation” value is listed as “in a time-dependent manner”. Also, at BRD4 (4T1 cells, at relatively lower concentrations, reversed at 20 μM), the “shape of concentration response of BRD4 degradation” value is on record as “hook effect”.
